This experiment concerns the target T1, Full length human CDC7 protein co-expressed with DBF4 (Homo sapiens, UniProt O00311).
T1 construct: Full length human CDC7 protein co-expressed with DBF4; purchased SignalChem (China)
Put plainly: CDC7 kinase biochemical assay (ADP-Glo, PDKtide substrate). As to conditions: 10 uM PDKtide, 4 h. As to the method:
CDC7 Kinase Biochemical Assay Protocol:
Full length human CDC7 protein co-expressed with DBF4 was purchased from SignalChem (China). CDC7 kinase activity was determined with PDKtide (SignalChem) as a substrate and by measuring ADP production using the ADP-Glo™ Kinase Assay kit (Promega) following the manufacturers instructions. The kinase reaction was performed using the following conditions: Buffer: 40 mM Tris pH 7.5, 20 mM MgCl2, 0.1 mg/ml BSA and 50 uM DTT. Final reaction mix contained 0.1 nM CDC7/DBF4, 1 uM ATP and 10 uM PDKtide. The kinase reaction time was 4 h. The ADP-Glo signal was measured using an EnVision plate reader (PerkinELmer).
Percent inhibition of CDC7 kinase activity was calculated based on the following formula: […]
SSample: the signal of compounds SHigh ctrl: the signal of high control (DMSO) SLow Ctrl: the signal of low control (positive control CDC7 inhibitor)
In general terms: ADP-Glo turns the ADP formed in a reaction into a luminescent signal.

[1] abbreviates: 0.1 nM CDC7/DBF4, 1 uM ATP, read-out: CDC7 ADP-Glo PDKtide IC50.

Where two headings read alike, the source gives them in different places.

T1 sequence (O00311 whole entry): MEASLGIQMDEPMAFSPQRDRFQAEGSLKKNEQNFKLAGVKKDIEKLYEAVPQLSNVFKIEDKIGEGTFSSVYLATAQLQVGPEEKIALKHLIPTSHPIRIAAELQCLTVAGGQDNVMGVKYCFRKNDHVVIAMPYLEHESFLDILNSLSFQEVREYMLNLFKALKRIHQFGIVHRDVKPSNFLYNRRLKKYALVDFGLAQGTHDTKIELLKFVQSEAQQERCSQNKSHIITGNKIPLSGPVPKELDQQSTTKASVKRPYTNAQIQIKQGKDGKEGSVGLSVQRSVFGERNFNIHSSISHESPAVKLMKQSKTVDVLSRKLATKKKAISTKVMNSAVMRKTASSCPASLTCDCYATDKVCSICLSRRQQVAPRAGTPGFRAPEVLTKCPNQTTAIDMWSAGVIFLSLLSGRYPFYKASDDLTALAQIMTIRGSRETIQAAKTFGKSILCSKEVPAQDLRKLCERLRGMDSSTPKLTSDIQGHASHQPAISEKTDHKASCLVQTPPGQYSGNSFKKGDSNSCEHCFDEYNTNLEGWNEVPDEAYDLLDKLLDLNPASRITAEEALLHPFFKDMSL
T1 sequence (Q9UBU7 whole entry partner): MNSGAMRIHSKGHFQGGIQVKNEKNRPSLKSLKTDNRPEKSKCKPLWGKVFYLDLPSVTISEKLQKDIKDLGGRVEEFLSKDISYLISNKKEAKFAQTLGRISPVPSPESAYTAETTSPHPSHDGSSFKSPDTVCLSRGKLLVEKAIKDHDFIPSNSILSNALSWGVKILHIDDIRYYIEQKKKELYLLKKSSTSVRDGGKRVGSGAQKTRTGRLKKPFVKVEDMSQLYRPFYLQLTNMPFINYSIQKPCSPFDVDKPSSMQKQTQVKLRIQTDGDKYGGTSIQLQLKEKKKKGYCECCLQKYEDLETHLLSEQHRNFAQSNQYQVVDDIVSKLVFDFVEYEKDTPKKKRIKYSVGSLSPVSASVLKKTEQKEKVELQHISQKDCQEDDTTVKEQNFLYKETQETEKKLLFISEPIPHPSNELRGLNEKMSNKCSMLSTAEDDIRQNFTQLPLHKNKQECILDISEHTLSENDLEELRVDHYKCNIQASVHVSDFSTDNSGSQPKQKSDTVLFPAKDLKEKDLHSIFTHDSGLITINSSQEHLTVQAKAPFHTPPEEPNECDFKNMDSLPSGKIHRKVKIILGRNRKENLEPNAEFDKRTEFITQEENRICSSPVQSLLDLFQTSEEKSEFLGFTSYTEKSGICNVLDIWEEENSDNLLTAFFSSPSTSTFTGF

For orientation: IC50 means the concentration at which inhibition is half-maximal. For the molecule `O=C1N[C@@H](C2CCC2)C(=O)N2CCOc3c(-c4cn[nH]c4)sc1c32` [Compound 23, (S)-7-cyclobutyl-2-(1H-pyrazol-4-yl)-4,5,7,8-tetrahydro-3-oxa-1-thia-5a,8-diazabenzo[cd] azulene-6,9-dione], where the note is “CDC7 ADP-Glo PDKtide IC50, 0.1 nM CDC7/DBF4, 1 uM ATP”, the IC50 is > 10 nM.
Regarding `O=C1NC[C@H](C2CCOCC2)N2CCOc3c(-c4cn[nH]c4)sc1c32` (single isomer, unassigned) [Compound 28], the IC50 under setting [1] was > 10 nM.
Regarding `COC[C@@H]1[C@H](C2CCC2)NC(=O)c2sc(-c3cn[nH]c3)c3c2N1CCO3` (single isomer, unassigned) [Compound 99], the IC50 under setting [1] was 1 to 10 nM.
Still for that read-out and setting: the same measure for `Cn1ccc(C2CN3CCOc4c(-c5cn[nH]c5)sc(c43)C(=O)N2)n1` (centres unmarked) [Compound 52]: 1 to 10 nM; for `Cc1ccnn1C[C@H]1CNC(=O)c2sc(-c3cn[nH]c3)c3c2N1CCO3` [Compound 62, (R)-6-((5-methyl-1H-pyrazol-1-yl)methyl)-2-(1H-pyrazol-4-yl)-4,5,7,8-tetrahydro-3-oxa-1-thia-5a,8-diazabenzo[cd]azulen-9(6H)-one]: > 10 nM.
On the same count and under the same terms, the same measure for `CC1(C)NC(=O)c2sc(-c3ccnc(N)n3)c3c2N1CCO3` [Compound 11, 2-(2-aminopyrimidin-4-yl)-6,6-dimethyl-4,5,6,7-tetrahydro-8H-3-oxa-1-thia-5a,7-diazaacenaphthylen-8-one]: 1 to 10 nM; for `COC[C@@H]1CNC(=O)c2sc(-c3ccncc3)c3c2N1CCO3` [Compound 105, (S)-6-(methoxymethyl)-2-(pyridin-4-yl)-4,5,7,8-tetrahydro-3-oxa-1-thia-5a,8-diazabenzo[cd]azulen-9(6H)-one]: < 1 nM.
`Cc1[nH]ncc1-c1sc2c3c1OCCN3C(C)(C)NC2=O` [Compound 6, 6,6-dimethyl-2-(5-methyl-1H-pyrazol-4-yl)-4,5,6,7-tetrahydro-8H-3-oxa-1-thia-5a,7-diazaacenaphthylen-8-one]: the 50% inhibitory concentration (IC50) under setting [1] lay in the range of 1 to 10 nM.
`Cc1cnn(C[C@H]2CNC(=O)c3sc(-c4cn[nH]c4)c4c3N2CCC4)c1` [Compound 95, (R)-6-((4-methyl-1H-pyrazol-1-yl)methyl)-2-(1H-pyrazol-4-yl)-4,5,7,8-tetrahydro-3H-1-thia-5a,8-diazabenzo[cd]azulen-9(6H)-one]: the IC50 under setting [1] is 1 to 10 nM.
On the same count and under the same terms, under `CCC(=O)C[C@@H]1CNC(=O)c2sc(-c3cn[nH]c3)c3c2N1CCC3` [Compound 90, (9R)-9-(2-oxobutyl)-3-(1H-pyrazol-4-yl)-2-thia-8,11-diazatricyclo[6.4.1.0^4,13]trideca-1(13),3-dien-12-one] stands 1 to 10 nM; under `CC1(C)NC(=O)c2sc(-c3ccnc4[nH]ncc34)c3c2N1CCO3` [Compound 8, 6,6-dimethyl-2-(1H-pyrazolo[3,4-b]pyridin-4-yl)-4,5,6,7-tetrahydro-8H-3-oxa-1-thia-5a,7-diazaacenaphthylen-8-one], 1 to 10 nM; under `O=C1N[C@@H](C2CCCCO2)CN2CC(F)(F)Cc3c(-c4cn[nH]c4)sc1c32` (single isomer, unassigned) [Compound 139], < 1 nM.
The same measure, in the same setting: under `O=C1NCCN2c3c1sc(-c1cn[nH]c1)c3OC[C@H]2CNC(=O)C1CCC1` [Compound 58, (R)—N-((9-oxo-2-(1H-pyrazol-4-yl)-4,5,6,7,8,9-hexahydro-3-oxa-1-thia-5a,8-diazabenzo[cd]azulen-5-yl)methyl)cyclobutanecarboxamide] stands < 1 nM; under `O=C1N[C@@H](C2CCOCC2)CN2CCOc3c(-c4cn[nH]c4)sc1c32` [Compound 65, (S)-2-(1H-pyrazol-4-yl)-7-(tetrahydro-2H-pyran-4-yl)-4,5,7,8-tetrahydro-3-oxa-1-thia-5a,8-diazabenzo[cd]azulen-9(6H)-one], < 1 nM.
Same read-out and setting: under `CC1(C)NC(=O)c2sc(-c3ccncn3)c3c2N1CCO3` [Compound 5, 6,6-Dimethyl-2-(pyrimidin-4-yl)-4,5,6,7-tetrahydro-8H-3-oxa-1-thia-5a,7-diazaacenaphthylen-8-one] stands > 10 nM.
As to `O=C1N[C@H](C2CCCCO2)CN2CC(F)(F)Cc3c(-c4cn[nH]c4)sc1c32` (single isomer, unassigned) [Compound 138], the IC50 under setting [1] lay in the range of 1 to 10 nM.
Still for that read-out and setting: the same measure for `CC(C)(O)C[C@H]1CN2CC(F)(F)Oc3c(-c4cn[nH]c4)sc(c32)C(=O)N1` [Compound 116, (S)-4,4-difluoro-7-(2-hydroxy-2-methylpropyl)-2-(1H-pyrazol-4-yl)-4,5,7,8-tetrahydro-3-oxa-1-thia-5a,8-diazabenzo[cd]azulen-9(6H)-one]: < 1 nM; for `O=C1NC[C@@H](CC2(O)CC2)N2CCCc3c(-c4cn[nH]c4)sc1c32` [Compound 89, (9R)-9-[(1-hydroxycyclopropyl)methyl]-3-(1H-pyrazol-4-yl)-2-thia-8,11-diazatricyclo [6.4.1.0^4,13]trideca-1(13),3-dien-12-one]: < 1 nM.
On the same count and under the same terms, under `O=C1NC(C2CC(F)(F)C2)CN2CC(F)Cc3c(-c4cn[nH]c4)sc1c32` (single isomer, unassigned) [Compound 129, 7-(3,3-difluorocyclobutyl)-4-fluoro-2-(1H-pyrazol-4-yl)-4,5,7,8-tetrahydro-3H-1-thia-5a,8-diazabenzo[cd]azulen-9(6H)-one] stands < 1 nM; under `O=C1N[C@@H](CN2CCC2)CN2CCOc3c(-c4cn[nH]c4)sc1c32` [Compound 40, (S)-7-(azetidin-1-ylmethyl)-2-(1H-pyrazol-4-yl)-4,5,7,8-tetrahydro-3-oxa-1-thia-5a,8-diazabenzo[cd]azulen-9(6H)-one], 1 to 10 nM.
On the same count and under the same terms, under `O=C1NC(C2CC(F)(F)C2)CN2CC(F)Cc3c(-c4cn[nH]c4)sc1c32` (single isomer, unassigned) [Compound 128, 7-(3,3-difluorocyclobutyl)-4-fluoro-2-(1H-pyrazol-4-yl)-4,5,7,8-tetrahydro-3H-1-thia-5a,8-diazabenzo[cd]azulen-9(6H)-one] stands 1 to 10 nM; under `O=C1NC[C@H](COCc2ccccc2)N2CCOc3c(-c4cn[nH]c4)sc1c32` [Compound 35, (R)-6-((benzyloxy)methyl)-2-(1H-pyrazol-4-yl)-4,5,7,8-tetrahydro-3-oxa-1-thia-5a,8-diazabenzo[cd]azulen-9(6H)-one], 1 to 10 nM.
Take `CC1C(C2CCC2)NC(=O)c2sc(-c3cn[nH]c3)c3c2N1CCO3` (racemic) [Compound 96, 10-cyclobutyl-9-methyl-3-(1H-pyrazol-4-yl)-5-oxa-2-thia-8,11-diazatricyclo[6.4.1.0^4,13] trideca-1(13),3-dien-12-one]: the IC50 under setting [1] was < 1 nM.
With `O=C1N[C@@H]([C@@H]2CCCO2)CN2CC(F)(F)Cc3c(-c4cn[nH]c4)sc1c32` (single isomer, unassigned) [Compound 120], the IC50 under setting [1] was < 1 nM.
`O=C1N[C@@H](C2CCC2)[C@H](CO)N2CCOc3c(-c4cn[nH]c4)sc1c32` [Compound 92, (9R,10S)-10-cyclobutyl-9-(hydroxymethyl)-3-(1H-pyrazol-4-yl)-5-oxa-2-thia-8,11-diazatricyclo[6.4.1.0^4,13]trideca-1(13),3-dien-12-one]: under setting [1], the IC50 was < 1 nM.
Still for that read-out and setting: the same measure for `C[C@H]1CN2CCOc3c(-c4ccnc5[nH]ccc45)sc(c32)C(=O)N1` [Compound 18, (S)-7-methyl-2-(1H-pyrrolo[2,3-b]pyridin-4-yl)-4,5,7,8-tetrahydro-3-oxa-1-thia-5a,8-diazabenzo[cd]azulen-9(6H)-one]: < 1 nM.

Values taken from patent US20230101747A1 (Schrödinger, Inc., priority 2019, published 2023).
